Results reported in PubChem BioAssay (NCI).
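Each compound was tested at five concentrations against cells in 96-well plates for 48 hours. GI50 marks 50% less growth. The concentration for full growth arrest is given as TGI.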

Tests used:
Test in all cases: DTP human tumour cell line panel, 48 h
[1] = test system: COLO 205 colon
[2] = test system: HCT-15 colon
[3] = test system: HS 578T breast
[4] = test system: HT29 colon
[5] = test system: NCI-H226 lung
[6] = test system: NCI-H460 lung
[7] = test system: TK-10 renal
[8] = test system: DLD-1 colon
[9] = test system: DMS 114 small cell lung
[10] = test system: HOP-18 NSCLC

Question: How did the GI50 [1] turn out when `N=c1ccc2nc3c(cc(N)c4ccccc43)oc-2c1` was run?
Answer: 0.237 µM

Question: And the TGI [1]?
Answer: 0.892 µM

Question: And the GI50 [2]?
Answer: 0.214 µM

Question: What about the TGI [2] of the same molecule?
Answer: 1.13 µM

Question: What about the GI50 [3] of the same molecule?
Answer: 0.201 µM

Question: And the TGI [3]?
Answer: 0.622 µM

Question: What about the GI50 [4] of the same molecule?
Answer: 0.535 µM

Question: And the TGI [4]?
Answer: 1.7 µM

Question: And the GI50 [5]?
Answer: 0.386 µM

Question: And the TGI [5]?
Answer: 1.63 µM

Question: What about the GI50 [6] of the same molecule?
Answer: 0.223 µM

Question: What about the TGI [6] of the same molecule?
Answer: 0.565 µM

Question: And the GI50 [7]?
Answer: 0.737 µM

Question: What about the TGI [7] of the same molecule?
Answer: 2.4 µM

Question: Which results are given for `Cc1ccc2sc3ccc(N)cc3c(=O)c2c1`?
Answer: TGI [1]: > 100 µM; TGI [2]: > 100 µM; TGI [3]: > 100 µM; TGI [4]: > 100 µM; TGI [5]: > 100 µM; TGI [6]: > 100 µM; TGI [7]: > 100 µM

Question: `COc1cc(/C=C2\CN(C(=O)CCN3CCC(=NO)CC3)C/C(=C\c3cc(OC)c(OC)c(OC)c3)C2=O)cc(OC)c1OC` was tested. Which GI50 [1] did it give?
Answer: 0.419 µM

Question: And the TGI [1]?
Answer: 1.27 µM

Question: And the GI50 [2]?
Answer: 0.972 µM

Question: And the TGI [2]?
Answer: 3.22 µM

Question: And the GI50 [3]?
Answer: 0.441 µM

Question: What about the TGI [3] of the same molecule?
Answer: 13.5 µM

Question: What about the GI50 [4] of the same molecule?
Answer: 0.369 µM

Question: And the TGI [4]?
Answer: 1.51 µM

Question: What about the GI50 [5] of the same molecule?
Answer: 0.792 µM

Question: What about the TGI [5] of the same molecule?
Answer: 2.85 µM

Question: What about the GI50 [6] of the same molecule?
Answer: 0.282 µM

Question: And the TGI [6]?
Answer: 0.847 µM

Question: What about the GI50 [7] of the same molecule?
Answer: 1.18 µM

Question: What about the TGI [7] of the same molecule?
Answer: 2.8 µM

Question: Which GI50 [1] does the source give for `CC(=O)c1cccc(-c2cccc(-c3ccn(CCN4CCOCC4)n3)c2)c1` here?
Answer: > 20 µM

Question: What about the TGI [1] of the same molecule?
Answer: > 20 µM

Question: And the GI50 [2]?
Answer: > 20 µM

Question: And the TGI [2]?
Answer: > 20 µM

Question: What about the GI50 [3] of the same molecule?
Answer: > 20 µM

Question: And the TGI [3]?
Answer: > 20 µM

Question: What about the GI50 [4] of the same molecule?
Answer: > 20 µM

Question: And the TGI [4]?
Answer: > 20 µM

Question: What about the GI50 [5] of the same molecule?
Answer: > 20 µM

Question: What about the TGI [5] of the same molecule?
Answer: > 20 µM

Question: And the GI50 [6]?
Answer: > 20 µM

Question: And the TGI [6]?
Answer: > 20 µM

Question: And the GI50 [7]?
Answer: > 20 µM

Question: What about the TGI [7] of the same molecule?
Answer: > 20 µM

Question: Which results are given for `CS(=O)(=O)NNS(=O)(=O)c1ccc(Cl)cc1`?
Answer: TGI [1]: > 100 µM; TGI [8]: > 100 µM; TGI [9]: > 100 µM; TGI [2]: > 100 µM; TGI [4]: > 100 µM; TGI [5]: 96.3 µM; TGI [6]: > 100 µM; TGI [7]: > 100 µM

Question: For `CCCCCCNC(=O)n1cc(F)c(=O)[nH]c1=O`, which GI50 [1] is on record?
Answer: 2.09 µM

Question: And the TGI [1]?
Answer: 18.4 µM

Question: And the GI50 [2]?
Answer: 4.26 µM

Question: What about the TGI [2] of the same molecule?
Answer: 28.7 µM

Question: What about the GI50 [3] of the same molecule?
Answer: 52 µM

Question: What about the TGI [3] of the same molecule?
Answer: > 100 µM

Question: And the GI50 [4]?
Answer: 2.43 µM

Question: What about the TGI [4] of the same molecule?
Answer: 19.3 µM

Question: And the GI50 [5]?
Answer: 10.6 µM

Question: What about the TGI [5] of the same molecule?
Answer: 23.3 µM

Question: What about the GI50 [6] of the same molecule?
Answer: 0.564 µM

Question: And the TGI [6]?
Answer: 17.7 µM

Question: And the GI50 [7]?
Answer: 4.71 µM

Question: And the TGI [7]?
Answer: 22.7 µM

Question: For `Cc1c(C(=O)CC(=O)C(=O)Nc2cc(Cl)ccc2Cl)[n+](=O)c2ccccc2n1[O-]`, which TGI [1] is on record?
Answer: 69.6 µM

Question: And the TGI [9]?
Answer: 61.3 µM

Question: And the TGI [2]?
Answer: 90.2 µM

Question: And the TGI [10]?
Answer: > 100 µM

Question: And the TGI [4]?
Answer: > 100 µM

Question: And the TGI [5]?
Answer: > 100 µM

Question: What about the TGI [6] of the same molecule?
Answer: 99.5 µM

Question: What about the TGI [7] of the same molecule?
Answer: > 100 µM

Question: Which GI50 [1] does the source give for `COC(=O)c1cc(-c2ccc(OC)cc2)[nH]c1N/N=C/c1c(Cl)cccc1Cl` here?
Answer: 0.846 µM

Question: What about the TGI [1] of the same molecule?
Answer: 2.93 µM

Question: What about the GI50 [2] of the same molecule?
Answer: 0.204 µM

Question: What about the TGI [2] of the same molecule?
Answer: 1.49 µM

Question: What about the GI50 [3] of the same molecule?
Answer: 0.19 µM

Question: What about the TGI [3] of the same molecule?
Answer: 2.82 µM

Question: And the GI50 [4]?
Answer: 0.255 µM

Question: And the TGI [4]?
Answer: 1.26 µM

Question: And the GI50 [5]?
Answer: 0.574 µM

Question: What about the TGI [5] of the same molecule?
Answer: 28.1 µM

Question: And the GI50 [6]?
Answer: 0.201 µM

Question: And the TGI [6]?
Answer: 0.992 µM

Question: What about the GI50 [7] of the same molecule?
Answer: 0.568 µM

Question: What about the TGI [7] of the same molecule?
Answer: 13.8 µM

Question: How did the TGI [1] turn out when `O=C1CCN2CCC(=O)c3c2c(cc2ccccc32)N1` was run?
Answer: > 100 µM

Question: What about the TGI [8] of the same molecule?
Answer: > 100 µM

Question: What about the TGI [9] of the same molecule?
Answer: > 100 µM

Question: What about the TGI [2] of the same molecule?
Answer: > 100 µM

Question: And the TGI [4]?
Answer: > 100 µM

Question: What about the TGI [5] of the same molecule?
Answer: > 100 µM

Question: And the TGI [6]?
Answer: > 100 µM

Question: What about the TGI [7] of the same molecule?
Answer: > 100 µM
